{
  "source": "patent EP0522596A1",
  "about": "“Method and means for inducing constriction of the pupil in the eye” (Kabi Pharmacia AB, priority 1989, dated 1993)",
  "key": {"[1]": {"test_system": "pupil", "test": "Capsaicin-induced miosis in monkeys with and without Lorglumide pretreatment", "assay_type": "in vivo, Macaca fascicularis", "description": "Example 7: Monkeys (Macaca fascicularis) were anesthesized, pretreated with atropine and cannulated as described in Example 1. Then 10 µl of a 1% solution of Capsaicin was injected into the anterior chamber; the diameter of the pupil was measured 15 minutes later. The decrease in pupil size obtained with this dose varied from 0 to 1.5 mm."}, "[2]": {"test_system": "pupil", "test": "Antagonism of the CCK-8 miosis dose-response in the monkey eye in vivo", "set-up": "species or system monkeys", "details": "0.75 µg of Lorglumide injected into the anterior chamber", "description": "Example 5: Dose-response determination of CCK-8 was carried out on one eye of atropine treated, pentobarbital anesthesized monkeys in accordance with the description in Example 1. Thereafter 0.75µg of Lorglumide in 15µl of isotonic saline was injected into the anterior chamber of the other eye. The CCK-8 dose-response relationship was then determined in the same way as in the case of the first eye."}, "[3]": {"test_system": "receptor present on the sphincter muscle", "assay_type": "in vivo", "details": "nerve blockade with tetrodotoxin; pretreatment with indomethacin"}, "[4]": {"test_system": "sphincter muscle of the iris", "details": "injected into the anterior chamber; Bill et al., 1979; cited from earlier work"}, "[5]": {"test_system": "pupil", "details": "primates; Mandahl et al., 1980; cited from earlier work"}},
  "note": "“Also recorded” adds a separate entry of the source. Ends that are not written are not given here.",
  "data": [
    {"compound": "CCCCCN(CCCCC)C(=O)C(CCC(=O)O)NC(=O)c1ccc(Cl)c(Cl)c1", "note": "(racemic) [Lorglumide, D,L-4-(3,4-dichlorobenzoylamino)-5-(dipentylamino)-5-oxo-pentanoic acid]", "values": [
      {"measurement": "effect on the pupil response to Capsaicin", "setting": "[1]; pretreatment with 7.5 µg Lorglumide in 15 µl, capsaicin-sensitive animals", "value": "decreased the response to Capsaicin; also recorded: most of the effect on the pupil was eliminated"},
      {"measurement": "shift of the CCK-8 dose-response curve to the right", "setting": "[2]", "value": "more than one order of magnitude"}
    ]},
    {"compound": "COc1cc(CNC(=O)CCCCC=CC(C)C)ccc1O", "note": "[Capsaicin, 8-methyl-N-vanillyl-6-nonenamide]", "values": [
      {"measurement": "miotic response in monkeys", "setting": "[1]; cynomolgus monkey, in vivo", "value": "less consistent and less pronounced as compared to the response in rabbits"}
    ]},
    {"compound": "COc1ccc2c(c1)c(CC(=O)O)c(C)n2C(=O)c1ccc(Cl)cc1", "note": "[indomethacin]", "values": [
      {"measurement": "effect of pretreatment on the miosis response to CCK", "setting": "[3]", "value": "do not cause a decrease in the miosis response"}
    ]},
    {"compound": "substance P (RPKPQQFFGLM; ends and bridges not checked; UniProt P20366 58-68, looked up) [neuropeptide released in the eye on irritation; synthetically produced]", "values": [
      {"measurement": "response of the sphincter muscle of the iris", "setting": "[4]", "value": "substantial contractive response"},
      {"measurement": "pupillary response to substance P", "setting": "[5]", "value": "totally absent"}
    ]}
  ]
}
